{
  "source": "paper PMC12274840",
  "about": "(The Journal of Biological Chemistry, 2025)",
  "key": {"[1]": {"system": "E. coli KA797 cells carrying BlaC position 105 library", "type": "cell-based, Escherichia coli", "settings": "for Fi MEM AVG / Fi AVG (average fitness): average of replicates; for Fi AVG (average fitness): relative to WT Ile"}, "[2]": {"system": "E. coli KA797 cells carrying KPC-2 position 105 library", "type": "cell-based", "settings": "selection with labelled antibiotic"}, "[3]": {"settings": "KPC-2 AA 105 = Trp (WT, reference)"}},
  "note": "Like-named read-outs stand apart in the source and are kept apart here.",
  "data": [
    {"smiles": "C[C@@H](O)[C@H]1C(=O)N2C(C(=O)O)=C(S[C@@H]3CN[C@H](C(=O)N(C)C)C3)[C@H](C)[C@H]12", "note": "[meropenem]", "values": [
      {"measurement": "Fi MEM AVG", "setting": "[1]; AA 105 Ser, meropenem", "result": -1.018},
      {"measurement": "Fi MEM 1", "setting": "[1]; AA 105 Ser, meropenem, replicate 1", "result": -0.084},
      {"measurement": "Fi MEM 2", "setting": "[1]; AA 105 Ser, meropenem, replicate 2", "result": -1.824},
      {"measurement": "Fi MEM 3", "setting": "[1]; AA 105 Ser, meropenem, replicate 3", "result": -1.144},
      {"measurement": "Fi AVG (average fitness)", "setting": "[1]; AA 105 Thr (BlaC I105T)", "result": -0.015},
      {"measurement": "Significance (Fi MEM AVG)", "setting": "[1]; AA 105 Thr, meropenem", "result": "-"},
      {"measurement": "Fi MEM AVG", "setting": "[1]; AA 105 Thr, meropenem", "result": -1.775},
      {"measurement": "Fi MEM 1", "setting": "[1]; AA 105 Thr, meropenem, replicate 1", "result": -1.838},
      {"measurement": "Fi MEM 2", "setting": "[1]; AA 105 Thr, meropenem, replicate 2", "result": -2.332},
      {"measurement": "Fi MEM 3", "setting": "[1]; AA 105 Thr, meropenem, replicate 3", "result": -1.155},
      {"measurement": "Fi MEM AVG", "setting": "[1]; AA 105 Trp, meropenem", "result": -0.487},
      {"measurement": "Fi MEM 1", "setting": "[1]; AA 105 Trp, meropenem, replicate 1", "result": 0.050},
      {"measurement": "Fi MEM 2", "setting": "[1]; AA 105 Trp, meropenem, replicate 2", "result": -1.403},
      {"measurement": "Fi MEM 3", "setting": "[1]; AA 105 Trp, meropenem, replicate 3", "result": -0.109},
      {"measurement": "Fi AVG (average fitness)", "setting": "[1]; AA 105 Tyr (BlaC I105Y)", "result": -0.070},
      {"measurement": "Fi MEM AVG", "setting": "[1]; AA 105 Tyr, meropenem", "result": -0.204},
      {"measurement": "Fi MEM 1", "setting": "[1]; AA 105 Tyr, meropenem, replicate 1", "result": 0.312},
      {"measurement": "Fi MEM 2", "setting": "[1]; AA 105 Tyr, meropenem, replicate 2", "result": -1.109},
      {"measurement": "Fi MEM 3", "setting": "[1]; AA 105 Tyr, meropenem, replicate 3", "result": 0.185},
      {"measurement": "Fi AVG (average fitness)", "setting": "[1]; AA 105 Val (BlaC I105V)", "result": -0.016},
      {"measurement": "Fi MEM AVG", "setting": "[1]; AA 105 Val, meropenem", "result": -0.855},
      {"measurement": "Fi MEM 1", "setting": "[1]; AA 105 Val, meropenem, replicate 1", "result": 0.059},
      {"measurement": "Fi MEM 2", "setting": "[1]; AA 105 Val, meropenem, replicate 2", "result": -2.574},
      {"measurement": "Fi MEM 3", "setting": "[1]; AA 105 Val, meropenem, replicate 3", "result": -0.049},
      {"measurement": "WT abs Fi 1", "setting": "[1]; WT (Ile 105) absolute fitness, meropenem, replicate 1", "result": 0.125},
      {"measurement": "WT abs Fi 2", "setting": "[1]; WT (Ile 105) absolute fitness, meropenem, replicate 2", "result": 0.070},
      {"measurement": "WT abs Fi 3", "setting": "[1]; WT (Ile 105) absolute fitness, meropenem, replicate 3", "result": 0.109},
      {"measurement": "Fi (relative fitness), Replicate 1", "setting": "[2]; KPC-2 AA 105 = Ala", "result": 0.581},
      {"measurement": "Fi AVG (average fitness of replicates)", "setting": "[2]; KPC-2 AA 105 = Ala", "result": 0.217},
      {"measurement": "Fi (relative fitness), Replicate 1", "setting": "[2]; KPC-2 AA 105 = Arg", "result": 0.240},
      {"measurement": "Fi AVG (average fitness of replicates)", "setting": "[2]; KPC-2 AA 105 = Arg", "result": 0.280},
      {"measurement": "Significance of average fitness", "setting": "[2]; KPC-2 AA 105 = Arg", "result": "+"},
      {"measurement": "Fi (relative fitness), Replicate 1", "setting": "[2]; KPC-2 AA 105 = Asn", "result": 0.449},
      {"measurement": "Fi AVG (average fitness of replicates)", "setting": "[2]; KPC-2 AA 105 = Asn", "result": 0.201},
      {"measurement": "Fi (relative fitness), Replicate 1", "setting": "[2]; KPC-2 AA 105 = Asp", "result": -0.690},
      {"measurement": "Fi AVG (average fitness of replicates)", "setting": "[2]; KPC-2 AA 105 = Asp", "result": -0.489},
      {"measurement": "Fi (relative fitness), Replicate 1", "setting": "[2]; KPC-2 AA 105 = Cys", "result": -0.271},
      {"measurement": "Fi AVG (average fitness of replicates)", "setting": "[2]; KPC-2 AA 105 = Cys", "result": -0.750},
      {"measurement": "Significance of average fitness", "setting": "[2]; KPC-2 AA 105 = Cys", "result": "-"},
      {"measurement": "Fi (relative fitness), Replicate 1", "setting": "[2]; KPC-2 AA 105 = Gln", "result": -0.624},
      {"measurement": "Fi AVG (average fitness of replicates)", "setting": "[2]; KPC-2 AA 105 = Gln", "result": -1.307},
      {"measurement": "Significance of average fitness", "setting": "[2]; KPC-2 AA 105 = Gln", "result": "-"},
      {"measurement": "Fi (relative fitness), Replicate 1", "setting": "[2]; KPC-2 AA 105 = Glu", "result": -0.509},
      {"measurement": "Fi AVG (average fitness of replicates)", "setting": "[2]; KPC-2 AA 105 = Glu", "result": -0.226},
      {"measurement": "Fi AVG (average fitness of replicates)", "setting": "[2]; KPC-2 AA 105 = Gly", "result": -0.037},
      {"measurement": "Fi (relative fitness), Replicate 1", "setting": "[2]; KPC-2 AA 105 = His", "result": -1.077},
      {"measurement": "Fi AVG (average fitness of replicates)", "setting": "[2]; KPC-2 AA 105 = His", "result": -0.525},
      {"measurement": "Fi (relative fitness), Replicate 1", "setting": "[2]; KPC-2 AA 105 = Ile", "result": 0.107},
      {"measurement": "Fi AVG (average fitness of replicates)", "setting": "[2]; KPC-2 AA 105 = Ile", "result": 0.391},
      {"measurement": "Significance of average fitness", "setting": "[2]; KPC-2 AA 105 = Ile", "result": "+"},
      {"measurement": "Fi (relative fitness), Replicate 1", "setting": "[2]; KPC-2 AA 105 = Leu", "result": -0.731},
      {"measurement": "Fi AVG (average fitness of replicates)", "setting": "[2]; KPC-2 AA 105 = Leu", "result": -0.210},
      {"measurement": "Fi (relative fitness), Replicate 1", "setting": "[2]; KPC-2 AA 105 = Lys", "result": 0.268},
      {"measurement": "Fi AVG (average fitness of replicates)", "setting": "[2]; KPC-2 AA 105 = Lys", "result": -0.089},
      {"measurement": "Fi (relative fitness), Replicate 1", "setting": "[2]; KPC-2 AA 105 = Met", "result": -1.083},
      {"measurement": "Fi AVG (average fitness of replicates)", "setting": "[2]; KPC-2 AA 105 = Met", "result": -0.791},
      {"measurement": "Fi (relative fitness), Replicate 1", "setting": "[2]; KPC-2 AA 105 = Phe", "result": -0.159},
      {"measurement": "Fi AVG (average fitness of replicates)", "setting": "[2]; KPC-2 AA 105 = Phe", "result": 0.248},
      {"measurement": "Fi (relative fitness), Replicate 1", "setting": "[2]; KPC-2 AA 105 = Pro", "result": -0.148},
      {"measurement": "Fi AVG (average fitness of replicates)", "setting": "[2]; KPC-2 AA 105 = Pro", "result": -1.195},
      {"measurement": "Significance of average fitness", "setting": "[2]; KPC-2 AA 105 = Pro", "result": "-"},
      {"measurement": "Fi (relative fitness), Replicate 1", "setting": "[2]; KPC-2 AA 105 = Ser", "result": 0.279},
      {"measurement": "Fi AVG (average fitness of replicates)", "setting": "[2]; KPC-2 AA 105 = Ser", "result": -0.239},
      {"measurement": "Fi AVG (average fitness of replicates)", "setting": "[2]; KPC-2 AA 105 = Thr", "result": -0.051},
      {"measurement": "Fi (relative fitness), Replicate 1", "setting": "[2]; [3]", "result": 0.000},
      {"measurement": "Fi AVG (average fitness of replicates)", "setting": "[2]; [3]", "result": 0.000},
      {"measurement": "Fi (relative fitness), Replicate 1", "setting": "[2]; KPC-2 AA 105 = Tyr", "result": 0.109},
      {"measurement": "Fi AVG (average fitness of replicates)", "setting": "[2]; KPC-2 AA 105 = Tyr", "result": -0.474},
      {"measurement": "Fi (relative fitness), Replicate 1", "setting": "[2]; KPC-2 AA 105 = Val", "result": -1.754},
      {"measurement": "Fi AVG (average fitness of replicates)", "setting": "[2]; KPC-2 AA 105 = Val", "result": -0.973},
      {"measurement": "WT abs Fi 1 (absolute fitness)", "setting": "[2]; KPC-2 WT (Trp 105), replicate 1", "result": 0.081},
      {"measurement": "WT abs Fi 2 (absolute fitness)", "setting": "[2]; KPC-2 WT (Trp 105), replicate 2", "result": -0.069},
      {"measurement": "WT abs Fi 3 (absolute fitness)", "setting": "[2]; KPC-2 WT (Trp 105), replicate 3", "result": 0.298}
    ]}
  ]
}
